Results reported in patent US10273272B2, “Antimicrobial peptides” (Amprologix Limited, priority 2014, dated 2019).
Converted amounts (≈) assume the structure as drawn. Where two headings read alike, the source gives them in different places. Residues, ends and D or L forms follow the SMILES beside them. No end group written: not given here.

Experiments:
[1] = tested on: E. coli; format: cell-based; conditions: for Average MIC: average of triplicate experiments, Table 5
Protocol: (§1) A series of derivatives of the NI0138-51 (SEQ ID NO:12) truncation were carried out with a view to maintaining stability of the helix and/or increasing net positive charge of the peptides (Table 3). Minimum inhibitory concentrations (MICs) were determined for each derivative against a range of Gram positive and Gram negative organisms by a modified 2-fold microtitre broth dilution method (Wu and Hancock, J Biol Chem 1999; 274: 29-35) (Table 2). […] This could not have been predicted.

[2] = tested on: N. lactamica; format: cell-based
Protocol: as §1

[3] = tested on: P. aeruginosa; format: cell-based
Protocol: as §1

[4] = tested on: S aureus 1195; format: cell-based
Protocol: as §1

[5] = tested on: haemolysis; experiment: Haemolysis assay (in vitro toxicity testing); format: cell-based; conditions: summary of Table 6
Protocol: In addition, in vitro toxicity testing (haemolysis assays) indicates a lack of toxicity at levels well above MIC for some peptides, indicating potential for a wide therapeutic window (Table 6). […] Since increased net charge is known to be associated with higher levels of haemolysis, (Dhople and Nagaraj, Peptides 2005: 26: 217-225), this was not wholly unexpected.
Experiments were conducted to assess the percentage haemolysis against peptide concentration for peptides SEQ ID NOs: 4, 5, 6 and 7 against full length epidermicin (SEQ ID NO:10) and SEQ ID NO:12.

[6] = tested on: S. Hominis; format: cell-based
Protocol: (§2) Experiments were conducted in which the full-length epidermicin peptide (51 amino acids, SEQ ID NO:10) was truncated to yield the derivatives shown in FIG. 1 (SEQ ID NOs:11 to 19). NI011-37 (SEQ ID NO:11) Is the region most similar to other peptides in the public domain, NI0138-51 (SEQ ID NO:12) is the region that is most unique with respect to other peptides in the public domain. All other truncations have been carried out by removing residues from the amino-terminal end of the peptide to each lysine residue (K). Lysine is important in antimicrobial peptides as it contributes to the net positive charge, which is thought to have a key role in the mode of action of ‘cationic’ peptides, like NI01 (SEQ ID NO:10).

[7] = tested on: S. aureus 1195; format: cell-based
Protocol: as §2

[8] = tested on: S. saprophyticus; format: cell-based
Protocol: as §2

[9] = tested on: Vanc. resistant Enterococcus; format: cell-based
Protocol: as §2

[10] = tested on: MRSA; format: cell-based, Staphylococcus aureus
Protocol: as §2

[11] = tested on: Gram-negative bacteria; format: cell-based; conditions: previous data, not presented
Protocol: It was a most surprising finding that the truncated and modified novel peptides of the present invention based on the epidermicin peptide were effective against Gram negative bacteria.
as §1

[12] = tested on: Gram positive and negative bacteria; experiment: Antimicrobial activity against drug-resistant pathogens, summary in words; format: cell-based; conditions: summary of Table 2
Protocol: as §1

Compound	MIC [6]	MIC [7]	MIC [8]	MIC [9]	further results
CC[C@H](C)[C@H](NC(=O)[C@H](CCC(N)=O)NC(=O)[C@H](CCCCN)NC(=O)[C@H](Cc1ccc(O)cc1)NC(=O)[C@@H](NC(=O)[C@H](Cc1c[nH]c2ccccc12)NC(=O)[C@H](CCCCN)NC(=O)[C@H](Cc1ccccc1)NC(=O)[C@H](CO)NC=O)[C@@H](C)CC)C(=O)N[C@@H](CCCCN)C(=O)N[C@@H](CCCCN)C(=O)N[C@@H](CC(C)C)C(=O)N[C@@H](Cc1c[nH]c2ccccc12)C(=O)N[C@@H](C)C(=O)O [SEQ ID NO:4, formyl-SFKWIYKQIKKLWA] (HELM PEPTIDE1{[O=C[*:2]].S.F.K.W.I.Y.K.Q.I.K.K.L.W.A}$$$$V2.0; C-terminus assumed)					MIC ([1]; E. coli 50, Table 2): 2.3 µg/mL (≈ 1.23 µM); MIC ([1]; E. coli 178, Table 2): 1.3 µg/mL (≈ 0.696 µM); MIC ([1]; E. coli DH5α, Table 2): 1.5 µg/mL (≈ 0.803 µM); MIC ([1]; E.coli 177, Table 2): 2 µg/mL (≈ 1.07 µM); MIC [2]: 6.7 µg/mL (≈ 3.59 µM); MIC [3]: 6.7 µg/mL (≈ 3.59 µM); MIC [4]: 1.7 µg/mL (≈ 0.91 µM); haemolytic activity / toxicity, in words [5]: higher levels of haemolytic activity
KGQKYVSLAWKHKGTILKWINAGQSFEWIYKQIKKLWA [SEQ ID NO:14]	6 µg/mL	8 µg/mL	8 µg/mL	4 µg/mL	
KGTILKWINAGQSFEWIYKQIKKLWA [SEQ ID NO:17]	16 µg/mL	8 µg/mL	4 µg/mL		
KHKGTILKWINAGQSFEWIYKQIKKLWA [SEQ ID NO:16]	4 µg/mL	8 µg/mL	8 µg/mL		MIC [10]: 12 µg/mL
KLIQFLATKGQKYVSLAWKHKGTILKWINAGQSFEWIYKQIKK [SEQ ID NO:13]	16 µg/mL	8 µg/mL	8 µg/mL		
KWINAGQSFEWIYKQIKKLWA [SEQ ID NO:18]	6 µg/mL	8 µg/mL	4 µg/mL	4 µg/mL	
KYVSLAWKHKGTILKWINAGQSFEWIYKQIKKLWA [SEQ ID NO:15]	6 µg/mL	8 µg/mL	4 µg/mL		
MAAFMKLIQFLATKGQKYVSLAWKHKGTILKWINAGQ [SEQ ID NO:11]	12 µg/mL	8 µg/mL	8 µg/mL	8 µg/mL	
MAAFMKLIQFLATKGQKYVSLAWKHKGTILKWINAGQSFEWIYKQIKKLWA [SEQ ID NO:10, reference compound]	0.42 µg/mL	0.16 µg/mL	0.02 µg/mL		MIC [10]: 0.03 µg/mL; MIC values against Gram-negative bacteria [11]: > 64 µg/mL
SFEWIKYQIKKLWA [SEQ ID NO:2, SFEWIKYQIKKLWA]					Average MIC ([1]; E. coli 49): 24 µg/mL; MIC ([1]; E. coli 50, Table 2): 27 µg/mL; Average MIC ([1]; E. coli 50): 27 µg/mL; Average MIC ([1]; E. coli 177): 19 µg/mL; MIC ([1]; E. coli 178, Table 2): 27 µg/mL; Average MIC ([1]; E. coli 178): 27 µg/mL; Average MIC ([1]; E. coli 187): 17 µg/mL; Average MIC ([1]; E. coli DH5a): 17 µg/mL; MIC ([1]; E. coli DH5α, Table 2): 17 µg/mL; MIC ([1]; E.coli 177, Table 2): 19 µg/mL; MIC [2]: 37.3 µg/mL; MIC [3]: >64 µg/mL; Average MIC [4]: 9 µg/mL; MIC [4]: 9 µg/mL; antimicrobial activity against Gram positive and negative bacteria, in words [12]: significantly reduced activity
